According to publication PMC9814781, “Structure-based design of a dual-warhead covalent inhibitor of FGFR4” (Communications Chemistry, 2022):

How the values were obtained:
RSK3 = RSK3 (Homo sapiens, UniProt Q15349); test: Kinase selectivity profiling
MET = MET (Homo sapiens, UniProt P08581); test: Kinase selectivity profiling
EPHA7 = EPHA7 (Homo sapiens, UniProt Q15375); test: Kinase selectivity profiling
EPHA2 = EPHA2 (Homo sapiens, UniProt P29317); test: Kinase selectivity profiling
AKT2 = AKT2 (Homo sapiens, UniProt P31751); test: Kinase selectivity profiling
NEK9 = NEK9 (Homo sapiens, UniProt Q8TD19); test: Kinase selectivity profiling
BRAF = BRAF (Homo sapiens, UniProt P15056); test: Kinase selectivity profiling
LYNa = LYNa (Homo sapiens, UniProt P07948); test: Kinase selectivity profiling
EGFR = EGFR (Homo sapiens, UniProt P00533); test: Kinase selectivity profiling
CDK9/CycK = CDK9/CycK (Homo sapiens, UniProt P50750); test: Kinase selectivity profiling
NEK2 = NEK2 (Homo sapiens, UniProt P51955); test: Kinase selectivity profiling
CDK5/p35NCK = CDK5/p35NCK (Homo sapiens, UniProt Q00535); test: Kinase selectivity profiling
HGK = HGK (Homo sapiens, UniProt O95819); test: Kinase selectivity profiling
ABL1 = ABL1 (Homo sapiens, UniProt P00519); test: Kinase selectivity profiling
IKK-beta = IKK-beta (Homo sapiens, UniProt O14920); test: Kinase selectivity profiling
Hep3B = Hep3B viability assay; type: cell-based; conditions: Homo sapiens, FGF19-overexpressing HCC cell line, 72 h, CCK-8
Procedure: Hep3B (ThermoFisher Scientific, 11965, America) and Huh7 (ThermoFisher Scientific, 11095, America) cells were seeded into 96-well plates at 4000 cells/well and 2000 cells/well, respectively. […] Cell viabilities were measured by a CCK-8 kit (Vazyme, China). The IC50 values were calculated using GraphPad Prism software.

ALK = ALK (Homo sapiens, UniProt Q9UM73); test: Kinase selectivity profiling
RSK4 = RSK4 (Homo sapiens, UniProt Q9UK32); test: Kinase selectivity profiling
FMS (CSF1R) = FMS (CSF1R) (Homo sapiens, UniProt P07333); test: Kinase selectivity profiling
PIK3CA/PIK3R1 = PIK3CA/PIK3R1 (Homo sapiens, UniProt P42336); test: Kinase selectivity profiling
TGFbR1 = TGFbR1 (Homo sapiens, UniProt P36897); test: Kinase selectivity profiling
LYNb = LYNb (Homo sapiens, UniProt P07948); test: Kinase selectivity profiling
RET = RET (Homo sapiens, UniProt P07949); test: Kinase selectivity profiling
FGFR1 = FGFR1 (Homo sapiens, UniProt P11362); test: Kinase inhibition assay (ADP-Glo); type: biochemical; design: human FGFR1 (residues 456–765); 6xHis + PreScission site (N, cleaved yes); made in house; host or cells: Escherichia coli Rosseta
Procedure: Wild-type FGFRs and mutant FGFRs were prepared as previously described[25]–[27]. In brief, the kinase domains of human FGFR1 (residues 456–765), FGFR2 (residues 453–770), FGFR3 (residues 450–758), and FGFR4 (residues 445–753) were cloned into a modified pET28a expression vector and then transfected into Escherichia coli Rosseta cells. The N-terminal of the recombinant proteins were contained a 6xHis tag followed by a PreScission cleavage site for FGFR1, FGFR2, FGFR3, and FGFR4. Site-directed mutagenesis of FGFR4 was generated according to the ClonExpress II One Step Cloning Kit (Vazyme) using the pET28a-FGFR4 plasmid as the template. These mutants were confirmed by DNA sequencing (Tsingke, Changsha, China). For crystallization experiments, the wild-type FGFR4 plasmid was co-expressed with untagged YOPH to obtain non-phosphorylated proteins. The proteins were first purified by Ni-NTA affinity chromatography. […]
All kinase inhibition assays were performed with optimized kinase assay buffer consisting of 40 mM Tris-HCl pH 7.5, 20 mM MgCl2, 20 mM NaCl, 0.1 mg/mL BSA, 1 mM TCEP, and 4% DMSO. […] Fluorescence was measured on a multimode plate reader (Perkin-Elmer) using a chemiluminescence program after the addition of the detection reagent. IC50 values were determined using a three-parameter log [Inhibitor] versus response model in GraphPad Prism software.

GSK3β = GSK3β (Homo sapiens, UniProt P49841); test: Kinase selectivity profiling
ROCK2 = ROCK2 (Homo sapiens, UniProt O75116); test: Kinase selectivity profiling

ABL1, sequence (P00519 whole entry): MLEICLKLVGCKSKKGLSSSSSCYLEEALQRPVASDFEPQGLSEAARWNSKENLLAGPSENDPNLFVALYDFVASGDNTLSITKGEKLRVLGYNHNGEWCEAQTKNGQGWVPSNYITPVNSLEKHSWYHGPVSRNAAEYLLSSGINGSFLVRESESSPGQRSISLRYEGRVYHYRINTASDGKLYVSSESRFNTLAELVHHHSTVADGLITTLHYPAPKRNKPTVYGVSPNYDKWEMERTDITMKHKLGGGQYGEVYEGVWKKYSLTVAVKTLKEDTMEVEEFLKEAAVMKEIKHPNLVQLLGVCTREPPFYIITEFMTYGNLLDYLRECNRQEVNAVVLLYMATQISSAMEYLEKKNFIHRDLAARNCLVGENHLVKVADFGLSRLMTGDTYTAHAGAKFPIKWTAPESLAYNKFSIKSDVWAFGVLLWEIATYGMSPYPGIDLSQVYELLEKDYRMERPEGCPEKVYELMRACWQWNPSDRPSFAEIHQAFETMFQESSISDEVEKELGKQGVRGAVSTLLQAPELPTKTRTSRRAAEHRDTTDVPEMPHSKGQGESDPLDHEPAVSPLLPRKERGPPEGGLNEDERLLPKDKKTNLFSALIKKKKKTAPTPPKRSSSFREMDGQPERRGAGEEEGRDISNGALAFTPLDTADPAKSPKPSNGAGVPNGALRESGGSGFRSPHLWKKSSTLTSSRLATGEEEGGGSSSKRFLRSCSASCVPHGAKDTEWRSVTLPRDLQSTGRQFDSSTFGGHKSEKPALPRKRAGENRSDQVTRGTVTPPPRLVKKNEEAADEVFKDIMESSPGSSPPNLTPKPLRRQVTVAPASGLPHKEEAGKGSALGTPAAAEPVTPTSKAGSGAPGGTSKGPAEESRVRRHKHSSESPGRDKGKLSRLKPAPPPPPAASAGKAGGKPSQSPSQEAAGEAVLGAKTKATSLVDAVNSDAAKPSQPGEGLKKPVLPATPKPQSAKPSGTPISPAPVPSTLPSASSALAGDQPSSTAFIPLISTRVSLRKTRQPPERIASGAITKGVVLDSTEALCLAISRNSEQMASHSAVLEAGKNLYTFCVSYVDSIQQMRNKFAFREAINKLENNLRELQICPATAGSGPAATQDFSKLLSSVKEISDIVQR
EPHA7, sequence (Q15375 28-998): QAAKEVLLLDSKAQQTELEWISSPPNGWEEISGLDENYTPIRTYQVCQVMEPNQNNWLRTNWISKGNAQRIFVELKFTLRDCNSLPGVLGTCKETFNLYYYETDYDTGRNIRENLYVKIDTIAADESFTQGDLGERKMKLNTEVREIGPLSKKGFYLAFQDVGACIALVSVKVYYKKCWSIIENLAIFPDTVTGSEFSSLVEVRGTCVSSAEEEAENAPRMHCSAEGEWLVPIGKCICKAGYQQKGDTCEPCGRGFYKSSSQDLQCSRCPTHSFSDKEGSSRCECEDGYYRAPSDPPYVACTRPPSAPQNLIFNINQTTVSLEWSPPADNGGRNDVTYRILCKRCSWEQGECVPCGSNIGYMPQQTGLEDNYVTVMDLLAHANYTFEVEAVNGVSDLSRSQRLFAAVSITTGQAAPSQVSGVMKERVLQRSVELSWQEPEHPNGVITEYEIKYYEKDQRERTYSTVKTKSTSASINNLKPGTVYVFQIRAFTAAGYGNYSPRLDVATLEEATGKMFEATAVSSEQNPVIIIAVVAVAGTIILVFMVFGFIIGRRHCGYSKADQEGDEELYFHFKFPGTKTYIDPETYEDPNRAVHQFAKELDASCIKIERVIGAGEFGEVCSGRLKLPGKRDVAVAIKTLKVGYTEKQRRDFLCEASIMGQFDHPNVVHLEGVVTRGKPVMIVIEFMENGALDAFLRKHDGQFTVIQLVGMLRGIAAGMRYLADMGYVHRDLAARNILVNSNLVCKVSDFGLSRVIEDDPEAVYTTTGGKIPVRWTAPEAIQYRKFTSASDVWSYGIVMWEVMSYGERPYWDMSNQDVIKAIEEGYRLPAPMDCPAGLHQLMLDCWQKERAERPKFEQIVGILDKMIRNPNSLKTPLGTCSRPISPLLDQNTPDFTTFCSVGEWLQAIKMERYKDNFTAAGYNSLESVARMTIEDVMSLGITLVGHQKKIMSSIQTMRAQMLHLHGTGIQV
HGK, sequence (O95819 whole entry): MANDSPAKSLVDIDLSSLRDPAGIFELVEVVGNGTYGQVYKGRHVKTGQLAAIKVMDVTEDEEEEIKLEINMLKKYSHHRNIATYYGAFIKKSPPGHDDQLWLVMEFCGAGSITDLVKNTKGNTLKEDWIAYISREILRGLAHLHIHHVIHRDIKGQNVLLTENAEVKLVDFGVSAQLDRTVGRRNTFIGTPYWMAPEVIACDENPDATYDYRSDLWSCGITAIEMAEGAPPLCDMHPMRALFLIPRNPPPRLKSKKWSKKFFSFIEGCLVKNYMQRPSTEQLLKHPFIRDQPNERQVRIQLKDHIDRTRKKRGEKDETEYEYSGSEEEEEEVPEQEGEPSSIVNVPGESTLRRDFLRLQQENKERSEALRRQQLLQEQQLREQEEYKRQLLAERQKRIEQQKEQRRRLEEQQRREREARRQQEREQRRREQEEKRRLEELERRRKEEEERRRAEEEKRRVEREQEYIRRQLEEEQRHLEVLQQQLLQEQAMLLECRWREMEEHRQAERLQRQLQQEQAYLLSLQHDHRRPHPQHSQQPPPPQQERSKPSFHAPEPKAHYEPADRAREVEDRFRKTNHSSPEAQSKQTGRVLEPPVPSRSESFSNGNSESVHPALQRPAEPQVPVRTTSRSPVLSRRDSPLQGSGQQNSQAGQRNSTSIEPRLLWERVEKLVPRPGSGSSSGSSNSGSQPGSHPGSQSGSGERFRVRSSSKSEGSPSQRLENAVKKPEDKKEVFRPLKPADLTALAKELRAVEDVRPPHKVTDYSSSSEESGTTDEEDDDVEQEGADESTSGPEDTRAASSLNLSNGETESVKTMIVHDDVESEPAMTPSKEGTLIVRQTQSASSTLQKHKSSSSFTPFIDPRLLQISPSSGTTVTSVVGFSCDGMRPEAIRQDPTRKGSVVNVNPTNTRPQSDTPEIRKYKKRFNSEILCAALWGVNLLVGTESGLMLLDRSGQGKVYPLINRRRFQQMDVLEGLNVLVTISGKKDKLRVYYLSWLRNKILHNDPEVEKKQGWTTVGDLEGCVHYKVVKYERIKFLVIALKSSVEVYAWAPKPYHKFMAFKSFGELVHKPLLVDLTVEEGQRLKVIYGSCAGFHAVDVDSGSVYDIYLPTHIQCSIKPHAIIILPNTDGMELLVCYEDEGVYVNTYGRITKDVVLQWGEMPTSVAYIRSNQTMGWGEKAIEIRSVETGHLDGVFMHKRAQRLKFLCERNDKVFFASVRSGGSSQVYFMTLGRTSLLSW
EPHA2, sequence (P29317 24-976): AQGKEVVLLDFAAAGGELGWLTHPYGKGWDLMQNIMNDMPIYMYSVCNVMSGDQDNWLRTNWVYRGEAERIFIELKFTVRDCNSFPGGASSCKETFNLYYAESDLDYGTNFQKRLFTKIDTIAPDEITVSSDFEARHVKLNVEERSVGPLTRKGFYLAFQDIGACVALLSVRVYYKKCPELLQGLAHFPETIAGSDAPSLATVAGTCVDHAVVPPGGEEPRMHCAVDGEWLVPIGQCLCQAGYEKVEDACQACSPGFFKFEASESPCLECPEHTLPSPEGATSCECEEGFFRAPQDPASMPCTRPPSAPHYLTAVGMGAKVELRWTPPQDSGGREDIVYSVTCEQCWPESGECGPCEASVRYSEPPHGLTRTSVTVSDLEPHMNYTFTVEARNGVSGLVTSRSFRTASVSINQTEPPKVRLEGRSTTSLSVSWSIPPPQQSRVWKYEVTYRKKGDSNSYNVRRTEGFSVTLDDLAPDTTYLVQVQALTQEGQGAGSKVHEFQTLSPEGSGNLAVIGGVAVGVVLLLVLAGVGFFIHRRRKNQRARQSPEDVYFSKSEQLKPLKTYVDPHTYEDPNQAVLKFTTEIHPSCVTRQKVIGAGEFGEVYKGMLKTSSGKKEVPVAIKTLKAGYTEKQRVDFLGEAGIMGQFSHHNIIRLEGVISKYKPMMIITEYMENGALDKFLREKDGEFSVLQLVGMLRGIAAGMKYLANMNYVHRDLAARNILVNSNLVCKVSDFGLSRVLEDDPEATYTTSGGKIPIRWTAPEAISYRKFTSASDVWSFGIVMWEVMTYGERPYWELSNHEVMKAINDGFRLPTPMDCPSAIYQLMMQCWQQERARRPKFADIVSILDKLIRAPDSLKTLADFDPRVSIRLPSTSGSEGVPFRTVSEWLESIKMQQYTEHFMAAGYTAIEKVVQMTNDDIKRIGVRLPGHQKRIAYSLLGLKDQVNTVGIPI
CDK5/p35NCK, sequence (Q00535 whole entry): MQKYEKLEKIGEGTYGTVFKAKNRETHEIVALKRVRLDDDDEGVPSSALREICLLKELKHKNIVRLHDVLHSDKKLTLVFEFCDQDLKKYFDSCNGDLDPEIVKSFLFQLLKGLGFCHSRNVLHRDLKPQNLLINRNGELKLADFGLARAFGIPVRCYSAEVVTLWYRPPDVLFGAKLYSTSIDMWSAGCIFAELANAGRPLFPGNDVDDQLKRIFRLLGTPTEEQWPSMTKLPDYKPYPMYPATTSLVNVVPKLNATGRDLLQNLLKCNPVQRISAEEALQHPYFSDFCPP
CDK5/p35NCK, sequence (Q15078 whole entry partner): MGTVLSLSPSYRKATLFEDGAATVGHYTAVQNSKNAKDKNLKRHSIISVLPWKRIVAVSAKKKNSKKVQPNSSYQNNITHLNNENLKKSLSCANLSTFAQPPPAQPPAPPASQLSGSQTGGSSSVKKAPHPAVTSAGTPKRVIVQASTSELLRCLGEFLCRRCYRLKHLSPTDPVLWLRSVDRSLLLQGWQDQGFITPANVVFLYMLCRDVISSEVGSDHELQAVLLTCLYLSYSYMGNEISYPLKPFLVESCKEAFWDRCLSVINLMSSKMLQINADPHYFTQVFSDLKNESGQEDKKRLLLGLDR

SMILES: C=CC(=O)Nc1ccccc1Nc1ncc2c(n1)N(CCCN1CCN(C(=O)C=C)CC1)C(=O)N(c1cc(OC)cc(OC)c1)C2 [CXF-009]
- inhibition at 1 µM (RSK3): 7.58%
- inhibition at 1 µM (MET): 2.65%
- inhibition at 1 µM (EPHA7): 2.74%
- inhibition at 1 µM (EPHA2): 2.12%
- inhibition at 1 µM (AKT2): 3.35%
- inhibition at 1 µM (NEK9): 5.11%
- inhibition at 1 µM (BRAF): -0.93%
- inhibition at 1 µM (LYNa): -2.53%
- inhibition at 1 µM (EGFR): -16.3%
- inhibition at 1 µM (CDK9/CycK): 0.11%
- inhibition at 1 µM (NEK2): 17.9%
- inhibition at 1 µM (CDK5/p35NCK): -0.87%
- inhibition at 1 µM (HGK): 2.58%
- inhibition at 1 µM (ABL1): -1.44%
- inhibition at 1 µM (IKK-beta): 19%
- IC50 (Hep3B): 895 nM
- inhibition at 1 µM (ALK): 7.28%
- inhibition at 1 µM (RSK4): 0%
- inhibition at 1 µM (FMS (CSF1R)): 15.4%
- inhibition at 1 µM (PIK3CA/PIK3R1): -35%
- inhibition at 1 µM (TGFbR1): 1.08%
- inhibition at 1 µM (LYNb): 7.62%
- inhibition at 1 µM (RET): 1.72%
- IC50 (FGFR1): 2580 nM
- inhibition at 1 µM (GSK3β): -0.37%
- inhibition at 1 µM (ROCK2): -2.53%
